Here are results for 15 compounds from patent publication US20240190880A1 (THE REGENTS OF THE UNIVERSITY OF MICHIGAN, priority 2021, published 2024).

The target in one assay is T1, ER (Homo sapiens, UniProt P03372).
T1 construct: host or cells: T47D and MCF7 human breast cancer cells
T1 sequence (P03372 1-595): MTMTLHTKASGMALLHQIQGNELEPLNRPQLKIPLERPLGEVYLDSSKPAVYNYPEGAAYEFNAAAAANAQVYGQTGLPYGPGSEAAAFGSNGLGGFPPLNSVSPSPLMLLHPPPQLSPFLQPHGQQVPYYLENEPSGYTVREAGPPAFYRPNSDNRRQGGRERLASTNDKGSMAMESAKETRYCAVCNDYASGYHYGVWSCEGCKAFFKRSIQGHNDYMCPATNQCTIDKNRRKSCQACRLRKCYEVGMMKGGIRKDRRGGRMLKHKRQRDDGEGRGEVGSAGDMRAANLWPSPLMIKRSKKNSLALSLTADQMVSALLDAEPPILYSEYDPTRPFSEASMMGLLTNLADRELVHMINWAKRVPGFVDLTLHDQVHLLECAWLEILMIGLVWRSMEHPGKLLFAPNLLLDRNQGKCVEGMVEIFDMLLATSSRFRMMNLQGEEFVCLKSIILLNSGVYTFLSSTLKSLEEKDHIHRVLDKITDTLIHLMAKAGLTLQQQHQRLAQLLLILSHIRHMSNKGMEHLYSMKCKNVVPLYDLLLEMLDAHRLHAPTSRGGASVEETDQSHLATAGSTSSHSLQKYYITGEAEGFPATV
Briefly: ER degradation activity, in-cell western blot analysis in T47D cells. It is filed as cell-based. The conditions noted are these: 16 hours, Table A does not say which cell line (T47D or MCF7), read-out: Potency (DC50). The protocol: ER degradation activity was evaluated in the human breast cancer cell line T47D and MCF7 purchased from the American Type Culture Collection (ATCC), Manassas, VA, and maintained and cultured in Dulbecco's Modified Eagle's medium (DMEM) containing 10% fetal bovine serum, 1 unit/ml of penicillin and 1 μg/ml of streptomycin.
The protocol for the in-cell western blot analysis: a. seed cells in black-sided/clear bottom 96- or 384-well plates at 40,000 or 10,000 cells/well, overnight; b. add diluted compounds (final 0.5% DMSO), 16 hours. […] RT 2 h, gentle shaking. Negative control: cells plus secondary antibodies (no primary antibodies); e. wash ×4 with PBS+0.05-0.1% Tween 20, gentel shaking; f. anti-rabbit-680 and anti-mouse-800 (both 1:1000 in LiCor block+0.05% Tween20, RT 1 h, gentle shaking, no light. LI-COR: 0.2% to reduce background; g. wash×4 with PBS+0.05% Tween 20, gental shaking; h. add 100 μL or 25 μL of PBS to each well and read on CLX plate reader. The relative ER percentage in treated cells were obtained by comparing the values of treated wells to those in untreated and DMSO-treated wells as 100%.
For orientation: DC50 means the concentration giving 50% degradation. As to `O=C1CCC(N2C(=O)c3cc4c(cc3C2=O)CN(CC(=O)N2CCC3(CC2)CCN(c2ccc([C@@H]5c6ccc(O)cc6CC[C@@H]5C5CCCCC5)cc2)CC3)C4)C(=O)N1` (mixture of isomers) [E 177, Rac-6-(2-(9-(4-((1R,2R)-2-cyclohexyl-6-hydroxy-1,2,3,4-tetrahydronaphthalen-1-yl)phenyl)-3,9-diazaspiro[5.5]undecan-3-yl)-2-oxoethyl)-2-(2,6-dioxopiperidin-3-yl)-6,7-dihydropyrrolo[3,4-f]isoindole-1,3(2H,5H)-dione], the DC50 was in the range of 10 to 100 nM.
`O=C1CCC(N2C(=O)c3cc4c(cc3C2=O)CN(CC(=O)N2CC3(CCN(c5ccc([C@@H]6c7ccc(O)cc7CC[C@@H]6c6ccccc6)cc5)CC3)C2)C4)C(=O)N1` (mixture of isomers) [E 9, Rac-2-(2,6-dioxopiperidin-3-yl)-6-(2-(7-(4-((1R,2S)-6-hydroxy-2-phenyl-1,2,3,4-tetrahydronaphthalen-1-yl)phenyl)-2,7-diazaspiro[3.5]nonan-2-yl)-2-oxoethyl)-6,7-dihydropyrrolo[3,4-f]isoindole-1,3(2H,5H)-dione]: the DC50 was less than 10 nM.
For the compound `C[C@@H]1Cc2c([nH]c3ccccc23)[C@@H](c2c(F)cc(N3CCC4(CN(C(=O)CN5Cc6cc7c(cc6C5)C(=O)N(C5CCC(=O)NC5=O)C7=O)C4)C3)cc2F)N1CC(F)F` (stereo partly drawn) [E 83, 6-(2-(6-(4-((1R,3R)-2-(2,2-difluoroethyl)-3-methyl-2,3,4,9-tetrahydro-1H-pyrido[3,4-b]indol-1-yl)-3,5-difluorophenyl)-2,6-diazaspiro[3.4]octan-2-yl)-2-oxoethyl)-2-(2,6-dioxopiperidin-3-yl)-6,7-dihydropyrrolo[3,4-f]isoindole-1,3(2H,5H)-dione], the DC50 was less than 10 nM.
`C[C@@H]1Cc2c([nH]c3ccccc23)[C@@H](c2c(F)cc(N3CCC(CN4CCC(N5Cc6cc7c(cc6C5)C(=O)N(C5CCC(=O)NC5=O)C7)CC4)CC3)cc2F)N1CC(F)F` (stereo partly drawn) [E 53, 3-(6-(1-((1-(4-((1R,3R)-2-(2,2-difluoroethyl)-3-methyl-2,3,4,9-tetrahydro-1H-pyrido[3,4-b]indol-1-yl)-3,5-difluorophenyl)piperidin-4-yl)methyl)piperidin-4-yl)-1-oxo-3,5,6,7-tetrahydropyrrolo[3,4-f]isoindol-2(1H)-yl)piperidine-2,6-dione]: the DC50 lay within 10 to 100 nM.
Turning to `O=C1CCC(N2C(=O)c3cc4c(cc3C2=O)CN(CC(=O)N2CC(n3cc(-c5ccc([C@@H]6c7ccc(O)cc7CC[C@@H]6c6ccccc6)cc5)cn3)C2)C4)C(=O)N1` (stereo partly drawn) [E 215, 2-(2,6-dioxopiperidin-3-yl)-6-(2-(3-(4-(4-((1R,2S)-6-hydroxy-2-phenyl-1,2,3,4-tetrahydronaphthalen-1-yl)phenyl)-1H-pyrazol-1-yl)azetidin-1-yl)-2-oxoethyl)-6,7-dihydropyrrolo[3,4-f]isoindole-1,3(2H,5H)-dione], the DC50 was greater than 100 nM.
Same read-out and setting: as for `C[C@@H]1Cc2c([nH]c3ccccc23)[C@@H](c2cnc(N3CCC4(CC3)CN(C(=O)CN3Cc5cc6c(cc5C3)C(=O)N(C3CCC(=O)NC3=O)C6=O)C4)nc2)N1CC(F)(F)F` (stereo partly drawn) [E 255, 2-(2,6-dioxopiperidin-3-yl)-6-(2-(7-(5-((1R,3R)-3-methyl-2-(2,2,2-trifluoroethyl)-2,3,4,9-tetrahydro-1H-pyrido[3,4-b]indol-1-yl)pyrimidin-2-yl)-2,7-diazaspiro[3.5]nonan-2-yl)-2-oxoethyl)-6,7-dihydropyrrolo[3,4-f]isoindole-1,3(2H,5H)-dione], the figure is less than 10 nM; as for `C[C@@H]1Cc2c([nH]c3ccccc23)[C@@H](c2c(F)cc(C(=O)N3CCC4(CCC(CN5Cc6cc7c(cc6C5)C(=O)N(C5CCC(=O)NC5=O)C7=O)CC4)CC3)cc2F)N1CC(F)F` (stereo partly drawn) [E 378, 6-((3-(4-((1R,3R)-2-(2,2-difluoroethyl)-3-methyl-2,3,4,9-tetrahydro-1H-pyrido[3,4-b]indol-1-yl)-3,5-difluorobenzoyl)-3-azaspiro[5.5]undecan-9-yl)methyl)-2-(2,6-dioxopiperidin-3-yl)-6,7-dihydropyrrolo[3,4-f]isoindole-1,3(2H,5H)-dione], greater than 100 nM.
On the same count and under the same terms, under `C[C@@H]1Cc2c([nH]c3ccccc23)[C@@H](c2c(F)cc(N3CCC4(CCN(CC(=O)N5Cc6cc7c(cc6C5)C(=O)N(C5CCC(=O)NC5=O)C7)C4)C3)cc2F)N1CC(F)F` (stereo partly drawn) [E 75, 3-(6-(2-(7-(4-((1R,3R)-2-(2,2-difluoroethyl)-3-methyl-2,3,4,9-tetrahydro-1H-pyrido[3,4-b]indol-1-yl)-3,5-difluorophenyl)-2,7-diazaspiro[4.4]nonan-2-yl)acetyl)-1-oxo-3,5,6,7-tetrahydropyrrolo[3,4-f]isoindol-2(1H)-yl)piperidine-2,6-dione] stands 10 to 100 nM; under `O=C1CCC(N2C(=O)c3cc4c(cc3C2=O)CN(CC(=O)N2CCC3(CC2)CCN(c2ccc(C(=C(CCCl)c5ccccc5)c5ccc(B(O)O)cc5)cc2)CC3)C4)C(=O)N1` (stereo not drawn) [E 197, (4-(4-chloro-1-(4-(9-(2-(6-(2,6-dioxopiperidin-3-yl)-5,7-dioxo-3,5,6,7-tetrahydropyrrolo[3,4-f]isoindol-2(1H)-yl)acetyl)-3,9-diazaspiro[5.5]undecan-3-yl)phenyl)-2-phenylbut-1-en-1-yl)phenyl)boronic acid], 10 to 100 nM.
Consider `O=C1CCC(N2C(=O)c3cc4c(cc3C2=O)CCN(C(=O)CN2CCC3(CC2)CCN(c2ccc([C@@H]5c6ccc(O)cc6CC[C@@H]5c5ccccc5)cc2)CC3)CC4)C(=O)N1` (stereo partly drawn) [E 167, 2-(2,6-dioxopiperidin-3-yl)-7-(2-(9-(4-((1R,2S)-6-hydroxy-2-phenyl-1,2,3,4-tetrahydronaphthalen-1-yl)phenyl)-3,9-diazaspiro[5.5]undecan-3-yl)acetyl)-6,7,8,9-tetrahydroazepino[4,5-f]isoindole-1,3(2H,5H)-dione], for which the DC50 is greater than 100 nM.
Turning to `O=C1CCC(N2Cc3cc4c(cc3C2=O)CN(C(=O)CN2CC3(C2)CN(c2ccc(C5=C(c6ccc(F)cc6)CCCc6cc(O)ccc65)cc2)C3)C4)C(=O)N1` (stereo not drawn) [E 48], the DC50 was 10 to 100 nM.
For the compound `O=C1CCC(N2C(=O)c3cc4c(cc3C2=O)CN(CC(=O)N2CC3(CCN(c5ccc(C(=C(CCCl)c6ccccc6)c6ccc(O)cc6)cc5)CC3)C2)C4)C(=O)N1` (stereo not drawn) [E 187, 6-(2-(7-(4-(4-chloro-1-(4-hydroxyphenyl)-2-phenylbut-1-en-1-yl)phenyl)-2,7-diazaspiro[3.5]nonan-2-yl)-2-oxoethyl)-2-(2,6-dioxopiperidin-3-yl)-6,7-dihydropyrrolo[3,4-f]isoindole-1,3(2H,5H)-dione], the DC50 was 10 to 100 nM.
With `O=C1CCC(N2C(=O)c3cc4c(cc3C2=O)CN([C@H]2CC[C@@H](NC3CN(c5ccc([C@@H]6c7ccc(O)cc7CC[C@@H]6c6ccccc6)cc5)C3)CC2)C4)C(=O)N1` (stereo partly drawn) [E 340, 2-(2,6-dioxopiperidin-3-yl)-6-((1S,4s)-4-((1-(4-((1R,2S)-6-hydroxy-2-phenyl-1,2,3,4-tetrahydronaphthalen-1-yl)phenyl)azetidin-3-yl)amino)cyclohexyl)-6,7-dihydropyrrolo[3,4-f]isoindole-1,3(2H,5H)-dione], the DC50 was greater than 100 nM.
Still for that read-out and setting: under `O=C1CCC(N2C(=O)c3cc4c(cc3C2=O)CN(CC(=O)N2CCC3(CC2)CCN(c2ccc([C@H]5c6ccc(O)cc6CC[C@H]5c5ccc(F)cc5)cc2)CC3)C4)C(=O)N1` (stereo partly drawn) [E 213, 2-(2,6-dioxopiperidin-3-yl)-6-(2-(9-(4-((1S,2R)-2-(4-fluorophenyl)-6-hydroxy-1,2,3,4-tetrahydronaphthalen-1-yl)phenyl)-3,9-diazaspiro[5.5]undecan-3-yl)-2-oxoethyl)-6,7-dihydropyrrolo[3,4-f]isoindole-1,3(2H,5H)-dione] stands 10 to 100 nM.

The assay is the same for the next values; noted with them: compounds 16 hours, Table A does not say whether T47D or MCF7, read-out: Potency (DC50).
Regarding `O=C1CCC(N2C(=O)c3cc4c(cc3C2=O)CN(C2CC3CCC(C2)N3CC2CCN(c3ccc([C@@H]5c6ccc(O)cc6CC[C@@H]5c5ccccc5)cc3)CC2)C4)C(=O)N1` (stereo partly drawn) [E 497, 2-(2,6-dioxopiperidin-3-yl)-6-(8-((1-(4-((1R,2S)-6-hydroxy-2-phenyl-1,2,3,4-tetrahydronaphthalen-1-yl)phenyl)piperidin-4-yl)methyl)-8-azabicyclo[3.2.1]octan-3-yl)-6,7-dihydropyrrolo[3,4-f]isoindole-1,3(2H,5H)-dione], the DC50 was greater than 100 nM.
